{"source": "patent US4891361A", "about": "“Method of minimizing erythema and elastosis” (Sansho Seiyaku Co., Ltd., priority 1985, dated 1990)", "key": {"[1]": {"test_system": "erythema", "assay": "Animal test: severity of UV-induced erythema on rat back", "assay_type": "in vivo, female Spraguex-Dawley rats", "set-up": "key: -: No erythema; ±: Very slight erythema; +: Slight erythema; ++: Medium erythema; +++: Severe erythema", "settings": "Test zone, 1% suspension", "source_text": "(§1) Test Method Ten heads of female Spraguex-Dawley rats of 4-week age were used for the test. The back of each rat was divided into two zones along its center line; one (test zone) was coated with a 1% suspension of kojic acid in a 1% aqueous solution of carboxymethylcellulose, and the other (control zone) was coated with a 1% aqueous solution of carboxymethylcellulose. The coated solution was washed off with hot water one hour later, and each zone was then irradiated with ultraviolet rays for 20 minutes using four UV tubes (Toshiba, Model 20S;E30) placed 62 cm away from the back of each rat. This operation was performed three times a week (on Monday, Wednesday and Friday) and continued over a period of six months. The drug solution and control solution were applied every day (even on days when UV irradiation was omitted). After that, the coating operation alone was continued for an additional six months. Severity of erythema developed on each zone was observed immediately after the start of the test, and 2, 4, 6, 8, 10 and 12 months later."}, "[2]": {"test_system": "elastosis", "assay": "Animal test: UV-induced elastosis, elastic fiber histology (Hematoxylin-Eosin, Weigert and Orcein-Giemsa staining)", "assay_type": "in vivo, female Spraguex-Dawley rats", "settings": "Test Zone, 1% suspension, total 10, end of the test (12 months)", "source_text": "as §1, with “At” for “Severity of erythema developed on each zone was observed immediately after”, “end” for “start”, “test, tissues were excised from the test” for “test,”, “control zones of each rat, paraffin sections of the skin, prepared from the tissues taken out, were subjected to a Hematoxylin-Eosin, Weigert” for “2, 4, 6, 8, 10”, “Orcein-Giemsa staining process, and the conditions of the elastic fiber were observed.” for “12 months later.”"}, "[3]": {"test_system": "mouse melanoma B16 cells", "assay": "Color fading test of cultured pigment cells (mouse melanoma B16 cells)", "assay_type": "cell-based", "experimental": "Besides the effects described above, the drugs of this invention also have powerful action to inhibit the formation of melanin. To be more specific, the drugs are very effective in inhibiting the formation of dopachrome (a red pigment). […] A color fading test of cultured pigment cells was carried out using kojic acid and kojic acid/β-cyclodextrin inclusion complex.\nB: 20% solution of kojic acid/β-cyclodextrin inclusion complex\nMouse melanoma B16 cells (hereinafter referred to simply as \"B16 cells\") (each dish containing […] cells) were grown in Eagle's MEM medium (with 10% fetal calf serum added thereto), (a) in the presence of kojic acid at a concentration of 2.5 mM (Test zone A), (b) in the presence of kojic acid/β-cyclodextrin inclusion complex at a concentration of 2.5 mM (as kojic acid) (Test zone B), and (c) in the absence of any drug (Test zone C), at 37° C. for six days in an atmosphere consisting of 5% CO2 and 95% air. At the end of incubation, each culture was treated with trypsin, then centrifuged at 2000rpm for five minutes to prepare cell pellets, and the degree of blackness was visually compared."}, "[4]": {"test_system": "mice", "settings": "mice (both male and female), orally administered; cited from earlier work"}, "[5]": {"test_system": "rats", "settings": "rats (both male and female), orally administered; cited from earlier work"}}, "data": [{"compound": "O=c1cc(CO)occ1O", "note": "[Kojic acid]", "values": [{"measurement": "Severity of erythema", "setting": "[1]; Coating Alone, month 8", "value": "-"}, {"measurement": "Severity of erythema", "setting": "[1]; Coating Alone, month 10", "value": "-"}, {"measurement": "Severity of erythema", "setting": "[1]; Coating Alone, month 12", "value": "-"}, {"measurement": "Severity of erythema", "setting": "[1]; Irradiation Period, month 0 (immediately after the start)", "value": "-"}, {"measurement": "Severity of erythema", "setting": "[1]; Irradiation Period, month 2", "value": "+"}, {"measurement": "Severity of erythema", "setting": "[1]; Irradiation Period, month 4", "value": "++"}, {"measurement": "Severity of erythema", "setting": "[1]; Irradiation Period, month 6", "value": "++"}, {"measurement": "Number of rats with evaluation + (Slight elastosis)", "setting": "[2]", "value": 3}, {"measurement": "Number of rats with evaluation ++ (Medium elastosis)", "setting": "[2]", "value": 1}, {"measurement": "Number of rats with evaluation +++ (Severe elastosis)", "setting": "[2]", "value": 0}, {"measurement": "Number of rats with evaluation - (No elastosis)", "setting": "[2]", "value": 3}, {"measurement": "Number of rats with evaluation ± (Very slight elastosis)", "setting": "[2]", "value": 3}, {"measurement": "Color fading (degree of blackness of cell pellet, visual)", "setting": "[3]; 2.5 mM (as kojic acid), six days, 37° C., compared with Test zone C (control)", "value": "Considerable color fading"}, {"measurement": "Inhibition of the formation of melanin (conclusion from color fading test)", "setting": "[3]; mouse melanoma B16 cells", "value": "outstanding effect"}, {"measurement": "LD50", "setting": "[4]", "value": "2500 to 3500", "unit": "mg/kg"}, {"measurement": "LD50", "setting": "[5]", "value": "2500 to 3500", "unit": "mg/kg"}]}]}
